Experimental findings from US20100120778A1, “QUINOXALINE-BASED LXR MODULATORS” (Wyeth, priority 2008, published 2010) are described below.

This test addresses T1, human LXRβ (Homo sapiens, UniProt P55055).
T1 construct: biotin (biotinylated); made in house; host or cells: E. coli
T1 sequence (P55055 1-460): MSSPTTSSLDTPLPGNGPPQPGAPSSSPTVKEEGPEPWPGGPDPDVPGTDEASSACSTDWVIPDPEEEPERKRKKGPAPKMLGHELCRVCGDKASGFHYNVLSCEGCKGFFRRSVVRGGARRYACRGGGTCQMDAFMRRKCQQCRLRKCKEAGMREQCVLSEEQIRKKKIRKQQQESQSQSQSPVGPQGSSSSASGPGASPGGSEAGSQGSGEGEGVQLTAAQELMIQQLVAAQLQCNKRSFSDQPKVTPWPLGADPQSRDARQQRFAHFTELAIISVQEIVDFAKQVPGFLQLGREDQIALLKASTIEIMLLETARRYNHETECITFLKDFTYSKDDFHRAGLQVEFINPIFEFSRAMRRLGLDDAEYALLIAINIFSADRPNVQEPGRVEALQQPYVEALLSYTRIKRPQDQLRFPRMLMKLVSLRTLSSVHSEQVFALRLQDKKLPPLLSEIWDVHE
Nature of the test: Ligand-binding test procedure for human LXRβ (3H T0901317 tracer, flash plates). The settings on record: biotinylated hLXRβ, tracer 3H T0901317, +4° C. over night. The method, then: I. Ligand-Binding Test Procedure for Human LXRβ.
Receptor source: E. coli extracted from cells expressing biotinylated hLXRβ. Extract was made in a similar buffer as above, but with 50 mM TRIS.
Washed streptavidin and coated flash plates with wash buffer. Diluted receptor extract to give Bmax˜4000 cpm and add to the wells. Wrapped the plates in aluminum foil and stored them at +4° C. overnight.
Made a dilution series in DMSO of the test ligands. Made a 5 nM solution of the radioactive tracer in buffer. Mixed 250 μl diluted tracer with 5 μl of the test ligand from each concentration of the dilution series. Washed the receptor-coated flash plates. Added 200 μl per well of the ligand/radiolabel mixture to the receptor-coated flash plates. Wrapped the plates in aluminum foil and incubate at +4° C. over night.
Aspirated wells, and washed the flashed plates. Sealed the plate.
Measured the remaining radioactivity in the plate.
The term IC50 denotes the concentration needed to halve the response being measured. `Cc1nc2c(C(F)(F)F)cccc2nc1-c1ccc(-c2cccc(NS(C)(=O)=O)c2)cc1` [Example 49, N-{4′-[3-methyl-5-(trifluoromethyl)quinoxalin-2-yl]biphenyl-3-yl}methanesulfonamide] returned an IC50 greater than 1 µM.

In turn, `CS(=O)(=O)c1cccc(Oc2ccc(-c3nc4ccccc4nc3C(F)(F)F)cc2)c1` [Example 27, 2-{4-[3-(methylsulfonyl)phenoxy]phenyl}-3-(trifluoromethyl)quinoxaline] showed an IC50 greater than 1 µM.

In the case of `COc1cccc2nc(C)c(-c3ccc(-c4cccc(S(C)(=O)=O)c4)cc3)nc12` [Example 69, 5-methoxy-2-methyl-3-[3′-(methylsulfonyl)biphenyl-4-yl]quinoxaline], the IC50 is greater than 1 µM.

For `CS(=O)(=O)c1cccc(-c2ccc(-c3cnc4cccc(C(F)(F)F)c4n3)cc2)c1` [Example 25, 2-[3′-(methylsulfonyl)biphenyl-4-yl]-8-(trifluoromethyl)quinoxaline], the IC50 is greater than 1 µM.

`CS(=O)(=O)c1cccc(-c2ccc(-c3cnc4c(C(F)(F)F)cccc4n3)cc2)c1` [Example 22, 2-[3′-(methylsulfonyl)biphenyl-4-yl]-5-(trifluoromethyl)quinoxaline] displayed an IC50 greater than 1 µM.

In turn, `Cc1nc2c(C(F)(F)F)cccc2nc1-c1ccc(-c2cccc(C(N)=O)c2)cc1` [Example 50, 4′-[3-methyl-5-(trifluoromethyl)quinoxalin-2-yl]biphenyl-3-carboxamide] displayed an IC50 greater than 1 µM.

As for `Cc1nc2c(Cl)cccc2nc1Oc1ccc(-c2cccc(S(N)(=O)=O)c2)cc1` [Example 92, 4′-[(5-chloro-3-methylquinoxalin-2-yl)oxy]biphenyl-3-sulfonamide], the IC50 stood at 2.47 µM.

Regarding `Cc1nc2cccc(C(F)(F)F)c2nc1-c1ccc(-c2cccc(NS(C)(=O)=O)c2)cc1` [Example 47, N-{4′-[3-methyl-8-(trifluoromethyl)quinoxalin-2-yl]biphenyl-3-yl}methanesulfonamide], the IC50 was greater than 1 µM.

Regarding `CNS(=O)(=O)c1cccc(-c2cccc(Oc3cnc4c(Cl)cccc4n3)c2)c1` [Example 84, 3′-[(5-Chloroquinoxalin-2-yl)oxy]-N-methylbiphenyl-3-sulfonamide], the half-maximal inhibitory concentration (IC50) came to 0.64 µM.

In turn, `CNC(=O)c1cccc(-c2ccc(-c3nc4cccc(C(F)(F)F)c4nc3C)cc2)c1` [Example 52, N-methyl-4′-[3-methyl-5-(trifluoromethyl)quinoxalin-2-yl]biphenyl-3-carboxamide] gave an IC50 greater than 1 µM.

On to `Cc1nc2c(C(F)(F)F)cccc2nc1-c1ccc(-c2cccc(S(C)(=O)=O)c2)cc1F` [Example 28, 2-[3-fluoro-3′-(methylsulfonyl)biphenyl-4-yl]-3-methyl-5-(trifluoromethyl)quinoxaline], for which the IC50 is greater than 1 µM.

The molecule `Cc1nc2c(Cl)cccc2nc1Oc1cccc(-c2cccc(NS(C)(=O)=O)c2)c1` [Example 90, N-{3′-[(5-chloro-3-methylquinoxalin-2-yl)oxy]biphenyl-3-yl}methanesulfonamide] yielded an IC50 greater than 1 µM.

The molecule `Cc1nc2c(C(F)(F)F)cccc2nc1-c1cc(Oc2ccc(S(=O)(=O)CC#N)cc2)ccc1Cl` [Example 41, [(4-{4-chloro-3-[3-methyl-5-(trifluoromethyl)quinoxalin-2-yl]phenoxy}phenyl)sulfonyl]-acetonitrile] returned an IC50 greater than 1 µM.

In turn, `CNS(=O)(=O)c1cccc(-c2ccc(Oc3cnc4c(Cl)cccc4n3)cc2)c1` [Example 86, 4′-[(5-Chloroquinoxalin-2-yl)oxy]-N-methylbiphenyl-3-sulfonamide] showed an IC50 greater than 1 µM.

For `CS(=O)(=O)c1cccc(Oc2cccc(-c3cnc4c(C(F)(F)F)cccc4n3)c2)c1` [Example 14, 2-{3-[3-(methylsulfonyl)phenoxy]phenyl}-5-(trifluoromethyl)quinoxaline], the IC50 is greater than 1 µM.

Regarding `Cc1nc2c(C(F)(F)F)cccc2nc1-c1ccc(Oc2cccc(S(C)(=O)=O)c2)cc1F` [Example 30, 2-{2-fluoro-4-[3-(methylsulfonyl)phenoxy]phenyl}-3-methyl-5-(trifluoromethyl)quinoxaline], the half-maximal inhibitory concentration (IC50) is greater than 1 µM.

For `CCS(=O)(=O)c1cccc(Oc2cccc(-c3cnc4cccc(C(F)(F)F)c4n3)c2)c1` [Example 16, 2-{3-[3-(ethylsulfonyl)phenoxy]phenyl}-8-(trifluoromethyl)quinoxaline], the IC50 was greater than 1 µM.

The molecule `CS(=O)(=O)c1cccc(Oc2cccc(-c3cnc4cccc(Cl)c4n3)c2)c1` [Example 13, 8-chloro-2-{3-[3-(methylsulfonyl)phenoxy]phenyl}quinoxaline] returned an IC50 greater than 1 µM.

On to `CC(=O)Nc1cccc(-c2ccc(-c3nc4cccc(C(F)(F)F)c4nc3C)cc2)c1` [Example 51, N-{4′-[3-methyl-5-(trifluoromethyl)quinoxalin-2-yl]biphenyl-3-yl}acetamide], for which the IC50 is greater than 1 µM.

The molecule `Cc1nc2cccc(C(F)(F)F)c2nc1-c1cc(Oc2ccccc2S(C)(=O)=O)ccc1Cl` [Example 44, 3-{2-chloro-5-[2-(methylsulfonyl)phenoxy]phenyl}-2-methyl-5-(trifluoromethyl)quinoxaline] had an IC50 greater than 1 µM.

The molecule `CS(=O)(=O)Nc1cccc(-c2ccc(Oc3cnc4c(Cl)cccc4n3)cc2)c1` [Example 87, N-{4′-[(5-chloroquinoxalin-2-yl)oxy]biphenyl-3-yl}methanesulfonamide] showed an IC50 greater than 1 µM.

Consider `Cc1nc2c(Cl)cccc2nc1Oc1cccc(-c2cccc(S(N)(=O)=O)c2)c1` [Example 89, 3′-[(5-chloro-3-methylquinoxalin-2-yl)oxy]biphenyl-3-sulfonamide], for which the IC50 is greater than 1 µM.

With `Cc1nc2cccc(C(F)(F)F)c2nc1-c1ccc(Oc2cccc(S(C)(=O)=O)c2)cc1F` [Example 29, 3-{2-fluoro-4-[3-(methylsulfonyl)phenoxy]phenyl}-2-methyl-5-(trifluoromethyl)quinoxaline], the IC50 is greater than 1 µM.

Molecule `CCc1nc2cccc(C(F)(F)F)c2nc1-c1ccc(-c2cccc(S(C)(=O)=O)c2)cc1` [Example 34, 2-ethyl-3-[3′-(methylsulfonyl)biphenyl-4-yl]-5-(trifluoromethyl)quinoxaline] registered an IC50 of 0.353 µM.

Take `CNS(=O)(=O)c1cccc(-c2ccc(Oc3nc4cccc(Cl)c4nc3C)cc2)c1` [Example 91, 4′-[(5-chloro-3-methylquinoxalin-2-yl)oxy]-N-methylbiphenyl-3-sulfonamide]: the IC50 worked out at 0.933 µM.

On to `Cc1nc2cccc(C(F)(F)F)c2nc1-c1cc(Oc2ccc(S(=O)(=O)CC#N)cc2)ccc1Cl` [Example 38, [(4-{4-chloro-3-[3-methyl-8-(trifluoromethyl)quinoxalin-2-yl]phenoxy}phenyl)sulfonyl]-acetonitrile], for which the 50% inhibitory concentration (IC50) is greater than 1 µM.

In turn, `Cc1nc2c(C(F)(F)F)cccc2nc1-c1ccc(-c2ccc(C(=O)N3CCCC3)cc2)cc1` [Example 54, 3-methyl-2-[4′-(pyrrolidin-1-ylcarbonyl)biphenyl-4-yl]-5-(trifluoromethyl)quinoxaline] came in with a half-inhibitory concentration (IC50) greater than 1 µM.

`Cc1nc2c(C(F)(F)F)cccc2nc1-c1cc(Oc2cccc(S(C)(=O)=O)c2)ccc1-c1ccccc1` [Example 40, 3-methyl-2-{4-[3-(methylsulfonyl)phenoxy]biphenyl-2-yl}-5-(trifluoromethyl)quinoxaline]: the IC50 was greater than 1 µM.

`Cc1nc2c(C(F)(F)F)cccc2nc1-c1cc(Oc2cccc(S(=O)(=O)CCCN)c2)ccc1Cl` [Example 45, 3-[(3-{4-chloro-3-[3-methyl-5-(trifluoromethyl)quinoxalin-2-yl]phenoxy}phenyl)sulfonyl]-propan-1-amine] came in with a half-inhibitory concentration (IC50) of 0.063 µM.

As for `Cc1nc2c(C(F)(F)F)cccc2nc1-c1cccc(-c2ccc(S(C)(=O)=O)cc2)c1` [Example 20, 3-methyl-2-[4′-(methylsulfonyl)biphenyl-3-yl]-5-(trifluoromethyl)quinoxaline], the IC50 is greater than 1 µM.

In turn, `CS(=O)(=O)c1ccc(-c2ccc(-c3cnc4cccc(C(F)(F)F)c4n3)cc2)cc1` [Example 23, 2-[4′-(methylsulfonyl)biphenyl-4-yl]-8-(trifluoromethyl)quinoxaline] displayed an IC50 greater than 1 µM.

`Cc1nc2c(C(F)(F)F)cccc2nc1-c1ccc(-c2ccccc2S(C)(=O)=O)cc1` [Example 21, 3-methyl-2-[2′-(methylsulfonyl)biphenyl-4-yl]-5-(trifluoromethyl)quinoxaline] registered an IC50 greater than 1 µM.

`CNS(=O)(=O)c1cccc(-c2ccc(-c3nc4c(C(F)(F)F)cccc4nc3C)cc2)c1` [Example 48, N-methyl-4′-[3-methyl-8-(trifluoromethyl)quinoxalin-2-yl]biphenyl-3-sulfonamide]: the IC50 came out at 1.09 µM.

As to `Cc1nc2c(Cl)ccc(Cl)c2nc1-c1ccc(-c2cccc(S(C)(=O)=O)c2)cc1` [Example 35, 5,8-dichloro-2-methyl-3-[3′-(methylsulfonyl)biphenyl-4-yl]quinoxaline], the IC50 was 0.0995 µM.
